Consider one molecule from PMC12641067 (Clinical Pharmacology and Therapeutics, 2025).

Like-named read-outs stand apart in the source and are kept apart here.

Data set [1] can be described thus: Population PK model of rifampicin (plasma data). The following applies: population estimate (RSE%). It is filed as in vivo, human. How it is done:
Individual plasma and urine data of GCDCA‐S in healthy subjects were obtained from three clinical studies. Tatosian et al.[18] (study #1) consisted of two occasions: on both occasions, a microdose probe drug cocktail for multiple clinically relevant transporters was administered, with a single oral dose of 600 mg rifampicin co‐administered on the second occasion (n = 6; 3 males, 3 females). Willemin et al.[22] (study #2) was a two‐phase, cross‐over study with a 21‐day washout period between the two phases. […] Study #3 consists of unpublished data from the same study design as reported by Willemin et al. (n = 12; 12 males).[22]
Models were evaluated using visual predictive check (VPC) plots, goodness‐of‐fit (GOF) plots, parameter uncertainty, and changes in objective function. Model visualization and simulations were conducted in MATLAB 2024a (MathWorks, Natick, MA, USA) and Graph Pad Prism 10.2.2 (GraphPad software, La Jolla, CA, USA).
The structural model for rifampicin was based on our previous report,[33] and represents a one‐compartment model with zero‐order absorption and linear elimination.
The models for rifampicin, probenecid, and GCDCA‐S incorporated both inter‐individual variability for a number of model parameters (assuming log‐normal distribution) and residual unexplained variability (using a combination of proportional and additive error models).

For data set [2], the system named is OATP1B1. Also on record: method as in ref 18 (a number printed in a supplementary file, which may have a reference list of its own: not looked up in the article's list). The following applies: HEK293, read-out: In vitro OATP1B1 IC50, cited from earlier work.
Data set [3] has as its target T1, OATP1B3 (Homo sapiens, UniProt Q9NPD5).
T1 sequence (Q9NPD5 1-702): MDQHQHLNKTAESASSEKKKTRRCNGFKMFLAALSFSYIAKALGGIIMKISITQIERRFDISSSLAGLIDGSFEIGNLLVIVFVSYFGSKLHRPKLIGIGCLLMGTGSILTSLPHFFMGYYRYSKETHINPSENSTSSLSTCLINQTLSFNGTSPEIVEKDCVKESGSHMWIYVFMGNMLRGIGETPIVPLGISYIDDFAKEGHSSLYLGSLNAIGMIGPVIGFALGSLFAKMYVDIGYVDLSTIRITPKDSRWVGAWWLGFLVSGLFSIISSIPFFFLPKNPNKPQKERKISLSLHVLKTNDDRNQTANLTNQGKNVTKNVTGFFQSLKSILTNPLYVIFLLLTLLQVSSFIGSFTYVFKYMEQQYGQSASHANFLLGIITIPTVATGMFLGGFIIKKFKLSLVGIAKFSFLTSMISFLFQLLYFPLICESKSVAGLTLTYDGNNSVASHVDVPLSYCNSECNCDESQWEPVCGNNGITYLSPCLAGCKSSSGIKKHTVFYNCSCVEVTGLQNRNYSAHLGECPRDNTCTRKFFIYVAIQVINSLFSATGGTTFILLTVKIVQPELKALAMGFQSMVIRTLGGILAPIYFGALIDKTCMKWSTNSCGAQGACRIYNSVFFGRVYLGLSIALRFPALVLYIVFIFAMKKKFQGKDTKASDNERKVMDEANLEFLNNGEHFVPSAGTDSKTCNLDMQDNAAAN
On the set-up: method as in ref 18 (a number printed in a supplementary file, which may have a reference list of its own: not looked up in the article's list). The following applies: HEK293, read-out: In vitro OATP1B3 IC50, cited from earlier work.

The subject of another data set is OATP1B. As to conditions: substrate CP-I, 600 mg, read-out: In vivo OATP1B Ki,u, cited from earlier work.
Data set [4] deals with OATP1B1. On the set-up: method as in ref 22 (a number printed in a supplementary file, which may have a reference list of its own: not looked up in the article's list). The following applies: substrate CP-I, 150 – 600 mg, read-out: In vivo OATP1B Ki,u; cited from earlier work.
Data set [5] deals with T1, OATP1B3. Kind of data set: In vivo OATP1B3 inhibition estimated by POP-PK modeling of GCDCA-S data. On the set-up: hepatic OATP1B3 and renal OAT3 transporters; from tissue; host or cells: liver (hepatocytes) of healthy human subjects, in vivo. As to conditions: GCDCA-S as substrate, rifampicin 600 mg, population estimate (RSE%), read-out: K i,unbound,OATP1B3.

As to `CO[C@H]1/C=C/O[C@@]2(C)Oc3c(C)c(O)c4c(O)c(c(/C=N/N5CCN(C)CC5)c(O)c4c3C2=O)NC(=O)/C(C)=C\C=C\[C@H](C)[C@H](O)[C@@H](C)[C@@H](O)[C@@H](C)[C@H](OC(C)=O)[C@@H]1C` [RIF, rifampicin], the clearance in data set [1] (both sexes, human, plasma, oral, 600 mg, read-out: CL RIF (converted)) is 112 mL/min. In addition, in data set [1] (duration of zero-order absorption), the “Tk0 RIF” value is 0.84 (41) h. In data set [1], the “V RIF” value is reported as 35 (5) L. In addition, in data set [1] (single oral dose 600 mg), the “Tlag RIF” value is on record as 0.56 (20) h. Further, the IC50 with OATP1B1 [2] (substrate CP-I) is 610 nM; with OATP1B1 [2] (substrate GCDCA-S), 170 nM; on OATP1B3 [3] (substrate CP-I), 570 nM; at OATP1B3 [3] (substrate GCDCA-S), 280 nM. Further, the Ki with OATP1B (ref 8) was 130 nM; in the data set with OATP1B (ref 19), 20 nM; with OATP1B (ref 21) it was 100 nM; in the data set on OATP1B (ref 23), 38 nM; in the data set with OATP1B (ref 24) it was 53 nM; in the data set with OATP1B1 [4], 140 nM. Besides, the Ki on OATP1B3 [5] was 9 nM.
